Consider three compounds from patent publication US20230098202A1 (priority 2020, published 2023).

Assay [1] relates to Phytophthora infestans. As to conditions: n = 10.
Assay [2] deals with Puccinia sorghi. The class given is cell-based. The conditions noted are these: 25 ppm.
A further assay relates to Rhizoctonia solani. In kind it is cell-based.
The next assay deals with Pythium aphanidermatum. The class given is cell-based.
The test system of assay [3] is Phytophthora infestans. The class given is cell-based. The conditions noted are these: Phytophthora infestans on tomato leaf discs; activity grade x repeats/12 x100.
A further assay concerns Pseudomonas syringae. The class given is cell-based.
Assay [4] concerns Puccinia sorghi. In words: In planta validation: Puccinia sorghi infection of corn seedlings. The class given is in vivo, Puccinia sorghi on corn. As to conditions: controlled growth conditions, growth rooms, spraying.
Procedure: • 1) Use: 120×80×80 mm pots, standard garden soil with fertilizer and corn seeds of a rust sensitive variety. • 2) Put pots in a tray and fill the pots with the soil to the top. • 3) Make a small grove for the seeds. • 4) Plant about 10 seeds of corn in each pot. • 5) Cover the seeds with additional soil. • 6) Add water into the tray—about 100 ml for each pot (fill the tray 3 times). • 7) Grow the corn for 8 days in growth room at 22° C. (until the second leaf is emerged). B. Preparation of Spore Suspension [from Corn Leaves] for Inoculation • 1) Insert 20 infected corn leaves with spores into a sterile 50-ml tube. • 2) Add 50 ml of cold 0.05% Tween® 20 solution. • 3) Insert the tube into a sealed, ice cold plastic box. • 4) Shake the box using a shaker for 15 min at 3000 RPM. • 5) Transfer the suspension (without the leaves) into a clean sterile 50-ml tube. • 6) Filter the spore suspension through 16 layers of gauze into another sterile 50-ml tube. • 7) Keep the tube with the spore suspension on ice. • 8) Wash and concentrate the spores on a 5-micron membrane filter. Wash 4 times with ice-cold sterile water and collect the spores in 0.05% Tween® 20 solution. • 9) For inoculation, dilute the spore suspension to get spore concentration of 8000 spores/ml using cold 0.05% Tween® 20 solution. […]
The next assay relates to Puccinia triticina. In words: In planta validation in wheat infected with leaf rust, growth chamber. The class given is in vivo, Puccinia triticina on wheat. As to conditions: sprayed a day before inoculation.

Read-outs that look alike come from different tables or passages of the source.

`CN[C@H]1CCC(c2ccc(Cl)c(Cl)c2)c2ccccc21.Cl` (stereo in doubt) [Compound 3, (1S,4R)-4-(3,4-dichlorophenyl)-N-methyl-1,2,3,4-tetrahydronaphthalen-1-aminium chloride]: the “Mean leaf surface area (0-3) covered by Phytophthora” value turned out to be 0.7 in the assay with Phytophthora infestans [1] (Exp. 487, 200 ppm in 0.1% base (pH = 6) + Silwet 0.005%, not treated 2.6); 0.1 with Phytophthora infestans [1] (Exp. 487, 200 ppm in DMSO 6% + Silwet 0.005%, 0=clear, 3=high coverage, not treated 2.6); 0.3 with Phytophthora infestans [1] (Exp. 492, 200 ppm in 0.1% base (pH = 6) + Silwet 0.005%, not treated 3); 0.4 in the assay on Phytophthora infestans [1] (Exp. 492, 200 ppm in DMSO 6% + Silwet 0.005%, not treated 3); 0.8 in the assay on Phytophthora infestans [1] (Exp. 500, 200 ppm in 0.1% base (pH = 6) without Silwet, not treated 3).
Take `C[C@H]1[C@H](c2ccc(O)c(O)c2)c2cc(O)c(O)cc2C[C@H]1C` [Compound 1, (5R,6R,7R)-5-(3,4-dihydroxyphenyl)-6,7-dimethyl-5,6,7,8-tetrahydronaphthalene-2,3-diol]: the “Relative Activity value (%)” value in the assay on Puccinia sorghi [2] is 50%; in the assay with Rhizoctonia solani, 50%; in the assay on Pythium aphanidermatum, 100%; with Phytophthora infestans [3], 25%; in the assay on Pseudomonas syringae it was 14%. The “efficacy in preventing and controlling Puccinia sorghi in corn plants (in words)” value in the assay with Puccinia sorghi [4] is reported as “very good efficacy”. Also, the “average efficacy in preventing and controlling Puccinia triticina” value came to 95.17% in the assay with Puccinia triticina (200 ppm) and 97.06% with Puccinia triticina (400 ppm).
Regarding `COc1cc2c(cc1O)[C@@H](c1ccc(O)c(O)c1)[C@H](C)[C@H](C)C2` [Compound 2, 4-((1R,2R,3R)-7-hydroxy-6-methoxy-2,3-dimethyl-1,2,3,4-tetrahydronaphthalen-1-yl)benzene-1,2-diol], the “Relative Activity value (%)” value is recorded as 50% in the assay on Puccinia sorghi [2], 14% with Rhizoctonia solani, 20% in the assay with Pythium aphanidermatum and 14% in the assay on Pseudomonas syringae.
